# According to patent publication US9989532B2, “Methods and compositions for detecting coagulation inhibitors” (The University of North Carolina at Chapel Hill, priority 2013, dated 2018):
# Tests used:
# thrombin = biological target: T1, thrombin (Homo sapiens, UniProt P00734); assay: substrate cleavage by thrombin in presence of sample; format: biochemical; details: substance in sample; substrate methoxycarbonyl-D-cyclohexylalanyl-glycyl-arginine-para-nitroaniline
# T1 construct: Thrombin (factor IIa) was purchased from Haematologic Technologies; purchased Haematologic Technologies
# Method: (§1) Substrate cleavage in the presence of test sample is measured for all four test conditions.
# (§2) There are any number of substrates for thrombin and factor Xa and other proteases as described herein that can be used in the methods of this invention. In some embodiments, the substrate is a chromogenic substrate, which can be a para-nitroanalide synthetic substrate. Non-limiting examples of a chromogenic substrate of this invention include tosyl-glycyl-prolyl-arginine para-nitroanilide, H-D-cyclohexylglycyl-alanyl-arginine para-nitroanilide, H-beta-alanyl-glycyl-arginine para-nitroanilide, H-D-cyclohexylalanyl-alanyl-arginine para-nitroanilide, H-D-phenylalanyl-pipecolyl-arginine para-nitroanilide, H-D-(carbobenzoyl)lysyl-prolyl-arginine para-nitroanilide, H-beta-alanyl-glycyl-arginine 7-amino-4-methylcoumarin, H-D-cyclohexylglycyl-alanyl-arginine 7-amino-4-methylcoumarin, H-D-(carbobenzoyl)lysyl-prolyl-arginine 7-amino-4-methylcoumarin, methoxycarbonyl-D-cyclohexylalanyl-glycyl-arginine para-nitroanilide, methoxycarbonyl-D-cyclohexylglycyl-glycyl-arginine para-nitroanilide, benzoyloxycarbonyl-D-arginyl-glycyl-arginine para-nitroanilide, benzoyl-isoleucyl-glutamyl-glycyl-arginine para-nitroanilide, methylsulfonyl-D-cyclohexylalanyl-glycyl-arginine 7-amino-4-methylcoumarin, and methoxycarbonyl-D-cyclohexylalanyl-glycyl-arginine 7-amino-4-methylcoumarin.
# (§3) Thrombin (factor IIa) was purchased from Haematologic Technologies. Factor Xa was purchased from Enzyme Research Labs.
# factor Xa = biological target: T2, factor Xa (Homo sapiens, UniProt P00742); assay: substrate cleavage by factor Xa in presence of sample; format: biochemical; details: substance in sample; substrate methoxycarbonyl-D-cyclohexylalanyl-glycyl-arginine-para-nitroaniline
# T2 construct: Factor Xa was purchased from Enzyme Research Labs; purchased Enzyme Research Labs
# T2 sequence (P00742 235-488 limits assumed): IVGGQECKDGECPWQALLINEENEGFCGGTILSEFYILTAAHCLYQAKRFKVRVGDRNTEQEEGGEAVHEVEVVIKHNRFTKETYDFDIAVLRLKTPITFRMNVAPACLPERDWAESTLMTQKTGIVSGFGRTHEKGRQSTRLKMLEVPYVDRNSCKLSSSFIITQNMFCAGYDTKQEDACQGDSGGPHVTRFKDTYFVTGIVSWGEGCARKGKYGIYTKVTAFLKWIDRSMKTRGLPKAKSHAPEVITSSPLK
# T2 sequence (P00742 41-179 limits assumed): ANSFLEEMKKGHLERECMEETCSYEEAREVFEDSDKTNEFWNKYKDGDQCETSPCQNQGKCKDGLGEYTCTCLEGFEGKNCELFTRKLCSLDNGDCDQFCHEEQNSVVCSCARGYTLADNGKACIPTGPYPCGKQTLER
# Method: as §1, §2, §3
# a2M-thrombin (a2M-IIa) = biological target: T3, a2M-thrombin (a2M-IIa) (Homo sapiens, UniProt P00734); assay: substrate cleavage by a2M-IIa (thrombin caged in alpha-2-macroglobulin); format: biochemical; details: for cleavage of the substrate, (b) a2M-thrombin (a2M-IIa): substance in sample, substrate methoxycarbonyl-D-cyclohexylalanyl-glycyl-arginine-para-nitroaniline
# T3 construct: Thrombin (factor IIa) was purchased from Haematologic Technologies; host or cells: no expression host: complex formed in vitro from purchased thrombin and a2M purified from human plasma, then purified on Q-Sepharose
# Method: as §1, §2
# (§4) 0.5 mM of para-nitroanilide synthetic substrate (Pefachrome FXa) was added and the rate of substrate cleavage determined by appearance of yellow color characteristic of the cleaved substrate. Pefachrome FXa is also effective as a substrate for thrombin.
# Purified a2M-IIa was eluted from the column with 1M sodium chloride in 20 mM HEPES (pH 7.4).
# (§5) The rates of substrate cleavage were converted to concentrations using measured Km and kcat values determined as previously described (Joost et al. “Inhibition of human blood coagulation factor Xa by alpha-2-macroglobulin” Biochemistry 26:5932-5937 (1987) doi: 10.1021/bi00392a053) (FIGS. 1-5).
# a2M-Xa [1] = biological target: T4, a2M-Xa (Homo sapiens, UniProt P00742); assay: substrate cleavage by a2M-Xa (factor Xa caged in alpha-2-macroglobulin); format: biochemical; parameters: Factor Xa was purchased from Enzyme Research Labs; host or cells: no expression host: complex formed in vitro from purchased factor Xa and a2M purified from human plasma, then purified on heparin Sepharose and Q-Sepharose; details: for cleavage of the substrate, (d) a2M-Xa: substance in sample, substrate methoxycarbonyl-D-cyclohexylalanyl-glycyl-arginine-para-nitroaniline
# Method: as §1, §2, §4, §5
# [2] = cited from earlier work; for time to peak plasma concentration: after oral ingestion
# a2M-IIa = a2M-IIa substrate cleavage test on plasma of fed mice
# Method: (§6) Mice were fed Xarelto or Pradaxa or regular chow. Plasma from the animals was analyzed for the presence of dabigatran (active metabolite of Pradaxa) or rivaroxaban (active component of Xarelto). […] 0.5 mM of para-nitroanilide synthetic substrate (Pefachrome FXa) was added and substrate cleavage was determined by appearance of yellow color characteristic of the cleaved substrate.
# [3] = cited from earlier work
# mice = assay: saphenous vein injury bleeding time in mice; format: in vivo; details: FIG. 6, normal mouse
# Method: Mice were administered 160 μg/kg rivaroxaban designed to produce a free plasma level of 36 ng/mL (75 nM), assuming 1.6% recovery based on estimates from Gnoth et al. (“in vitro and in vivo P-glycoprotein transport characteristics of rivaroxaban” J Pharmacol Exp Thor. 338:372-380 (2011) doi: 10.1124/jpet.111.180240) and Weinz et al. (“Pharmacokinetics of BAY 59-7939—an oral, direct Factor Xa inhibitor—in rats and dogs” Xenobiotica 35:891-910 (2005) doi: 10.1080/00498250500250493) and accounting for 95-98% blood cell and plasma protein binding (Weinz et al. “Pharmacokinetics of BAY 59-7939—an oral, direct Factor Xa inhibitor—in rats and dogs” Xenobiotica 35:891-910 (2005))
# [4] = assumed, based on estimates from Gnoth et al. and Weinz et al.; cited from earlier work
# a2M-Xa [5] = biological target: T4, a2M-Xa; details: substance in plasma of mice fed Pradaxa or Xarelto
# Method: as §6
Compound,"cleavage of the substrate, (a) Thrombin (thrombin)","cleavage of the substrate, (c) Factor Xa (factor Xa)","cleavage of the substrate, (b) a2M-thrombin (a2M-IIa) (a2M-thrombin (a2M-IIa))","cleavage of the substrate, (d) a2M-Xa (a2M-Xa [1])",oral bioavailability [2],time to peak plasma concentration [2],other results
CC(=O)CC(c1ccccc1)c1c(O)c2ccccc2oc1=O (stereo not drawn) [Warfarin],Cleavage,Cleavage,Cleavage,Cleavage,,,
COc1ccc(-n2nc(C(N)=O)c3c2C(=O)N(c2ccc(N4CCCCC4=O)cc2)CC3)cc1 [apixaban],,,,,more than 50%,,eliminated by the kidneys ([2]; in vivo): 25%; metabolism ([2]; in vivo): metabolized in part by CYP3A4
[H]/N=C(/N)c1ccc(NCc2nc3cc(C(=O)N(CCC(=O)O)c4ccccn4)ccc3n2C)cc1 [dabigatran],,,,,7.2%,approximately 1.5 hours,"peak plasma level ([2]; healthy human volunteers): 150 ng/mL; route of excretion ([2]; oral treatment): predominantly excreted in the feces; presence of Dabigatran in plasma (a2M-IIa; mice fed Pradaxa, animals 7-12): yes; presence of Dabigatran in plasma (a2M-IIa; mice fed Xarelto, animals 1-6): no; bound to plasma proteins [3]: 35%; time for saphenous vein injury to stop bleeding (mice; 7 μg/kg dabigatran alone): more than 2 minutes"
O=C(NC[C@H]1CN(c2ccc(N3CCOCC3=O)cc2)C(=O)O1)c1ccc(Cl)s1 [rivaroxaban],Cleavage,No,Cleavage,No,more than 80%,approximately 3 hours,"recovery [4]: 1.6%; food effect on absorption from the gastrointestinal tract ([2]; in vivo): food does not affect absorption; excreted by the kidneys ([2]; orally ingested): Sixty-six; terminal half-life ([2]; steady state, patients >75 years old): up to 12 hours; effect on substrate cleavage by purified a2M-IIa (a2M-thrombin (a2M-IIa); FIG. 1, buffer pH 7.4, 5 minutes incubation, 0.5 mM Pefachrome FXa): did not block substrate cleavage; effect on a2M-IIa cleavage of substrate (a2M-IIa; substance in plasma of mice fed Pradaxa or Xarelto): had no effect; blood cell and plasma protein binding [3]: 95-98%; time for saphenous vein injury to stop bleeding (mice; 160 μg/kg rivaroxaban alone): ~2 min; effect on a2M-Xa cleavage of substrate (a2M-Xa [5]): blocked; effect on substrate cleavage by purified a2M-Xa (a2M-Xa [1]; FIG. 2, buffer pH 7.4, 5 minutes incubation, 0.5 mM Pefachrome FXa): blocked substrate cleavage"
heparin,No,No,Cleavage,Cleavage,,,
low molecular weight heparin,Cleavage,No,Cleavage,Cleavage,,,
